From ChEMBL document CHEMBL4800728, “Data for DCP probe JNJ-54119936” (2021)

How the values were obtained:
[1] = biological target: Neuromedin-K receptor (Homo sapiens) (UniProt P29371); assay: NK3 (h) CEREP screen
[2] = biological target: Serine/threonine-protein kinase PAK 3 (Homo sapiens) (UniProt O75914); assay: PAK3 Invitrogen kinase panel; settings: Compound concentration 10.0 uM
[3] = biological target: Sodium-dependent dopamine transporter (Homo sapiens) (UniProt Q01959); assay: dopamine transporter (h) CEREP screen
[4] = biological target: T1, Sigma intracellular receptor 2 (Homo sapiens, UniProt Q5BJF2); settings: Compound concentration 10.0 uM
[5] = biological target: Serine/threonine-protein kinase Nek2 (Homo sapiens) (UniProt P51955); assay: NEK2 Invitrogen kinase panel; settings: Compound concentration 10.0 uM
[6] = biological target: T2, Oxysterols receptor LXR-beta (Homo sapiens) (UniProt P55055); assay: LXRbeta Indigo Bioscience nuclear receptor screen
T2 sequence (whole entry): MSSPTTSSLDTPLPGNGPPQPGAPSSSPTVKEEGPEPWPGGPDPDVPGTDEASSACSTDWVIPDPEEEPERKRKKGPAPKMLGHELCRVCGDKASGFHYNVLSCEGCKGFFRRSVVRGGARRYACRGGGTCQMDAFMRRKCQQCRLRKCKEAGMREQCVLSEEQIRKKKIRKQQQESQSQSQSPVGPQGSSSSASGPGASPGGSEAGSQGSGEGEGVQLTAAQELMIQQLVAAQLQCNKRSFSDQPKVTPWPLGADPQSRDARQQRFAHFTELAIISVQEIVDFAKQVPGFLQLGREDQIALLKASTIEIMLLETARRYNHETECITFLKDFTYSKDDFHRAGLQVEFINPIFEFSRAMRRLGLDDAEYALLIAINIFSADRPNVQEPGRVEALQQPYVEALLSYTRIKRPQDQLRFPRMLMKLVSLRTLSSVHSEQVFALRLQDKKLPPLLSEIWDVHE

[7] = biological target: Mu-type opioid receptor (Homo sapiens) (UniProt P35372); settings: Compound concentration 10.0 uM
[8] = biological target: Alpha-2B adrenergic receptor (Homo sapiens, UniProt P18089); assay: GPCRScan assay: inhibition of Alpha2B; set-up: radioligand conc. used [nm] 1.5 – 2.0, parental cells HEKT
[9] = biological target: T1, Sigma intracellular receptor 2; assay: GPCRScan assay: inhibition of Sigma 2; set-up: radioligand conc. used [nm] 5.0, parental cells HEKT
[10] = biological target: T3, Estrogen receptor (Homo sapiens) (UniProt P03372); assay: ERalpha Indigo Bioscience nuclear receptor screen
T3 sequence (whole entry): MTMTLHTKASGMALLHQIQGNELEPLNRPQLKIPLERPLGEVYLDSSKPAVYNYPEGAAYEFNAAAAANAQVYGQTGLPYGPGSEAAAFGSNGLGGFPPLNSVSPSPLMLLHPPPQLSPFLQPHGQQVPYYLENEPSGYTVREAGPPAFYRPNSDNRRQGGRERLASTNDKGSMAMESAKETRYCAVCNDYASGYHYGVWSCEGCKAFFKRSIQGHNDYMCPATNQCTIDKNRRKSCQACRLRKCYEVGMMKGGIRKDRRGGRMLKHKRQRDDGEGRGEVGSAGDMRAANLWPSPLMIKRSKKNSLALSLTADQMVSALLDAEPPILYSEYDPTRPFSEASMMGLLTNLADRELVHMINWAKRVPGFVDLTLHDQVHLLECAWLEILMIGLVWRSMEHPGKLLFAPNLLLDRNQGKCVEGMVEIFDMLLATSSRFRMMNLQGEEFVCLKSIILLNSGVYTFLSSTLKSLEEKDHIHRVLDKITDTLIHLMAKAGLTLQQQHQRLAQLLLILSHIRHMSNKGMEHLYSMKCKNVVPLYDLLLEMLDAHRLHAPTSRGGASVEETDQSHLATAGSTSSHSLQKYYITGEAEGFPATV

[11] = biological target: Epidermal growth factor receptor (Homo sapiens) (UniProt P00533); assay: EGFR Invitrogen kinase panel; settings: Compound concentration 10.0 uM
[12] = biological target: T3, Estrogen receptor (Homo sapiens); assay: ERalpha In-house nuclear receptor screen; settings: Compound concentration 3.0 uM
[13] = biological target: Serine/threonine-protein kinase PLK1 (Homo sapiens) (UniProt P53350); assay: Plk1 Invitrogen kinase panel; settings: Compound concentration 10.0 uM
Bile acid receptor = Bile acid receptor (Homo sapiens, UniProt Q96RI1); assay: (§1) FXR In-house nuclear receptor screen
[14] = biological target: T4, Bile acid receptor (Homo sapiens) (UniProt Q96RI1); assay: as §1; settings: Compound concentration 3.0 uM
T4 sequence (whole entry): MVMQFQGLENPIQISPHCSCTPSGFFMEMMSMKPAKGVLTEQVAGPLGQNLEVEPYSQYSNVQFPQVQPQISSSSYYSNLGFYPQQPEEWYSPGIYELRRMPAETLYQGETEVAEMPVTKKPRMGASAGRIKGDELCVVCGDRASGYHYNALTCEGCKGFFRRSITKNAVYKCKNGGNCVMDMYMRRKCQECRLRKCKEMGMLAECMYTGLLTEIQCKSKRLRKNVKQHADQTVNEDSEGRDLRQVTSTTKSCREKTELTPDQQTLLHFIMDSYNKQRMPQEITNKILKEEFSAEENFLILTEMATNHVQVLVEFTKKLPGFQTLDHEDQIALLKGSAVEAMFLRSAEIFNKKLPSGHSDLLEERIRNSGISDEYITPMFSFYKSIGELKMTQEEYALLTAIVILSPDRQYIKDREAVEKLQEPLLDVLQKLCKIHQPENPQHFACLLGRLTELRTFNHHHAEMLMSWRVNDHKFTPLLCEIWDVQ

[15] = biological target: 5-hydroxytryptamine receptor 1D (Homo sapiens) (UniProt P28221); settings: Compound concentration 10.0 uM
[16] = biological target: Serine/threonine-protein kinase Chk1 (Homo sapiens) (UniProt O14757); assay: CHK1 Invitrogen kinase panel; settings: Compound concentration 10.0 uM
[17] = biological target: Estrogen receptor beta (Homo sapiens) (UniProt Q92731); assay: ERbeta Indigo Bioscience nuclear receptor screen
Chain of Estrogen receptor beta (Homo sapiens) (Q92731 whole entry): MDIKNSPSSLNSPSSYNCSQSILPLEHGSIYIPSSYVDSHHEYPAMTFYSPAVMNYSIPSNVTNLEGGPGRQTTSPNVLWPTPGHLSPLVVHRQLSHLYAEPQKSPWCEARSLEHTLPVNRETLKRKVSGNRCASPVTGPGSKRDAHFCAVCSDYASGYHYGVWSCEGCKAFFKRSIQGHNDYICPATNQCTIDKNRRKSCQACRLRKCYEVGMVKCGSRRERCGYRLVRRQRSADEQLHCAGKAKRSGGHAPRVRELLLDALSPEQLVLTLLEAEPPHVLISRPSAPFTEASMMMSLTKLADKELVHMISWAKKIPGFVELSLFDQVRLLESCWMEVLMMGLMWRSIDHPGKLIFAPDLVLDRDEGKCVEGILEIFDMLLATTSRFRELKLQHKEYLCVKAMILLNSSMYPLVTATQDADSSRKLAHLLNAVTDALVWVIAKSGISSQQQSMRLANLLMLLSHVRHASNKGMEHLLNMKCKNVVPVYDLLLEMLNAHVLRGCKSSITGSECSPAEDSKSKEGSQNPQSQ

T1 sequence (Q5BJF2 whole entry): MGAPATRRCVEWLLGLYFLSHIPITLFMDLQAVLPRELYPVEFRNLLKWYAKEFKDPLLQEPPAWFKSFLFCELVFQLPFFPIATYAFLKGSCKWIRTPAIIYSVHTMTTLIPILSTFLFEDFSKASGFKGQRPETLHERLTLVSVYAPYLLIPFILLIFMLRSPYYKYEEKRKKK
Chain of Sodium-dependent dopamine transporter (Homo sapiens) (Q01959 whole entry): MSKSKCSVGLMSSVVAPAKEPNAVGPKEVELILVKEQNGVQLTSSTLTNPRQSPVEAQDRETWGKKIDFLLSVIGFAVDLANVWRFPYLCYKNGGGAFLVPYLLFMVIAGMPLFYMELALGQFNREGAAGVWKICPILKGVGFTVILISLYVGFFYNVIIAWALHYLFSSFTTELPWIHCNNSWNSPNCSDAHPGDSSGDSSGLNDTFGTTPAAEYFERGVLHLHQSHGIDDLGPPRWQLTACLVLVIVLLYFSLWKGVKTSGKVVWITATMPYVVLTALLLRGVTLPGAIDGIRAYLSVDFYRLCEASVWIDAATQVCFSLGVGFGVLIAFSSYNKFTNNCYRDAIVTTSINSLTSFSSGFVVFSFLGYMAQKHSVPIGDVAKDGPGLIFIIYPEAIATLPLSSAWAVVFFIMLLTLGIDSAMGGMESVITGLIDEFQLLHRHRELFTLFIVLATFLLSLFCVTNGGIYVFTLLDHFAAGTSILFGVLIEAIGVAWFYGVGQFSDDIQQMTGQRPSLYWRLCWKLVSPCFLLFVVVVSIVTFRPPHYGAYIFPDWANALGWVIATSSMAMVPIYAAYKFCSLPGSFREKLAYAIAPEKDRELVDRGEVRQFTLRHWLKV
Chain of Neuromedin-K receptor (Homo sapiens) (P29371 whole entry): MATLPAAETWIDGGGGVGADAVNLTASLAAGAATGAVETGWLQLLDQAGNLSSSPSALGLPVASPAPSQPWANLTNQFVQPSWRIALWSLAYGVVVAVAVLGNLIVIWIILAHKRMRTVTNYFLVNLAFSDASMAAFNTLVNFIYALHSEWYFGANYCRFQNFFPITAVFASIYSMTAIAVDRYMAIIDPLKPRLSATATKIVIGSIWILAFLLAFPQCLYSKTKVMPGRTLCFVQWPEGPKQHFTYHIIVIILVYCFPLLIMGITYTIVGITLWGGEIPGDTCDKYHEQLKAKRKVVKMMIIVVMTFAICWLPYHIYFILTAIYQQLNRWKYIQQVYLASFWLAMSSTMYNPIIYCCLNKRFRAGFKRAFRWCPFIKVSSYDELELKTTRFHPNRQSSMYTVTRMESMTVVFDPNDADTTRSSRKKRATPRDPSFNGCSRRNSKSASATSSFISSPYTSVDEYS
Chain of Alpha-2B adrenergic receptor (P18089 whole entry): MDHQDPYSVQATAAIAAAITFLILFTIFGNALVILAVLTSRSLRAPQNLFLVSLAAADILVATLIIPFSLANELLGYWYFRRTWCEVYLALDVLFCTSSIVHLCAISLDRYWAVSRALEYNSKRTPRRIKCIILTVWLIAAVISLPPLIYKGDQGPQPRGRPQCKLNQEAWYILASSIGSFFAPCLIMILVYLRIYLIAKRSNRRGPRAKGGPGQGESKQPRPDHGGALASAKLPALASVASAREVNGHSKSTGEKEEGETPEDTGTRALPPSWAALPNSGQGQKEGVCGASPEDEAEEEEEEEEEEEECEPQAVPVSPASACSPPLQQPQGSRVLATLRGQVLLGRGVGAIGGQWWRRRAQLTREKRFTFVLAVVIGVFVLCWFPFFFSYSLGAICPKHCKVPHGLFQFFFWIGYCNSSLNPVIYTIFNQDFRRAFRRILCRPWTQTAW
Chain of Mu-type opioid receptor (Homo sapiens) (P35372 whole entry): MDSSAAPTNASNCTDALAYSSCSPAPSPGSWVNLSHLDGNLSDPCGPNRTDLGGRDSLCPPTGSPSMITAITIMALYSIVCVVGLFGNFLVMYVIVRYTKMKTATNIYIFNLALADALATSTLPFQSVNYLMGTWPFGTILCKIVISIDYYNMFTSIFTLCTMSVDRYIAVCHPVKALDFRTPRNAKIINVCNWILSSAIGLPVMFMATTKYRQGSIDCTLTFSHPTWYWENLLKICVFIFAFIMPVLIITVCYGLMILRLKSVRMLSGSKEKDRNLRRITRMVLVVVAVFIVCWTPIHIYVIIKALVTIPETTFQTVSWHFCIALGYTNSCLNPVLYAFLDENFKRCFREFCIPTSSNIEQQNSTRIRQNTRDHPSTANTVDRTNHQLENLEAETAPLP
Chain of Serine/threonine-protein kinase PAK 3 (Homo sapiens) (O75914 whole entry, looked up): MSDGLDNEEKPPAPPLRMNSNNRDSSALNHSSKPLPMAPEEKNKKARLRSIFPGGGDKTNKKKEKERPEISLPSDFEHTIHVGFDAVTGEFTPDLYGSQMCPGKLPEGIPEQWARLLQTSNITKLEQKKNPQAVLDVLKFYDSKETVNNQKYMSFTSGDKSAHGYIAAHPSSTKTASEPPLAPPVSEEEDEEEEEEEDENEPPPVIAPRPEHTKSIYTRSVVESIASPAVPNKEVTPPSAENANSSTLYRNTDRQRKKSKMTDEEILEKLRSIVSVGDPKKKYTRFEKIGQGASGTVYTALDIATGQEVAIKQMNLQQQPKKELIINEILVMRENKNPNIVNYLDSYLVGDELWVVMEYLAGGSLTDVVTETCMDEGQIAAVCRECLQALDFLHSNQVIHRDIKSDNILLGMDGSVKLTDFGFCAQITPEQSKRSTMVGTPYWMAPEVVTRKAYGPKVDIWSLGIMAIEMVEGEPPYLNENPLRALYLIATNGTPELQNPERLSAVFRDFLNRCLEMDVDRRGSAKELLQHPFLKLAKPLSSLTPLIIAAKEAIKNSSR
Chain of 5-hydroxytryptamine receptor 1D (Homo sapiens) (P28221 whole entry): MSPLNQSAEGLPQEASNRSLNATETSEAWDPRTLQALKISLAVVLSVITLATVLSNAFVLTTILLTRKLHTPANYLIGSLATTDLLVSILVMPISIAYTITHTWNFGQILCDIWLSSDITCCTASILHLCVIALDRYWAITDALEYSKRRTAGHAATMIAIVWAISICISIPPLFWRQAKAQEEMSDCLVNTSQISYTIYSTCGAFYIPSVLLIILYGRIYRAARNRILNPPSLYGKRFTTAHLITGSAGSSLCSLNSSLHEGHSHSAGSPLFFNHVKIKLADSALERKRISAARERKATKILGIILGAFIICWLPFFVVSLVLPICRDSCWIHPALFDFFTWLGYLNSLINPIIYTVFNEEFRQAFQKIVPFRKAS
Chain of Serine/threonine-protein kinase Chk1 (Homo sapiens) (O14757 whole entry): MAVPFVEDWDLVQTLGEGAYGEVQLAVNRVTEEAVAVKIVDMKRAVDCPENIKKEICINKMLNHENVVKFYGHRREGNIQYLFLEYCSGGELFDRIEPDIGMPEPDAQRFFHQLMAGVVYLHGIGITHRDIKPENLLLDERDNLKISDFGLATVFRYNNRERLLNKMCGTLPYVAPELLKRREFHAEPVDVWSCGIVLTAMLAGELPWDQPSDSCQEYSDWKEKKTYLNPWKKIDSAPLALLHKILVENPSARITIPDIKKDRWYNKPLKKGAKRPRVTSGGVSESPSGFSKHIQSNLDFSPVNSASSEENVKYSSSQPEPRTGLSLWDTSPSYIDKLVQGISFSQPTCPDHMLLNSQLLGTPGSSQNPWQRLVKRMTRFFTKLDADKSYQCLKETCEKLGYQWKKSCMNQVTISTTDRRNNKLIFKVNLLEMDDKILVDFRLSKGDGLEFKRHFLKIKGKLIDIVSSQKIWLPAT
Chain of Serine/threonine-protein kinase Nek2 (Homo sapiens) (P51955 whole entry): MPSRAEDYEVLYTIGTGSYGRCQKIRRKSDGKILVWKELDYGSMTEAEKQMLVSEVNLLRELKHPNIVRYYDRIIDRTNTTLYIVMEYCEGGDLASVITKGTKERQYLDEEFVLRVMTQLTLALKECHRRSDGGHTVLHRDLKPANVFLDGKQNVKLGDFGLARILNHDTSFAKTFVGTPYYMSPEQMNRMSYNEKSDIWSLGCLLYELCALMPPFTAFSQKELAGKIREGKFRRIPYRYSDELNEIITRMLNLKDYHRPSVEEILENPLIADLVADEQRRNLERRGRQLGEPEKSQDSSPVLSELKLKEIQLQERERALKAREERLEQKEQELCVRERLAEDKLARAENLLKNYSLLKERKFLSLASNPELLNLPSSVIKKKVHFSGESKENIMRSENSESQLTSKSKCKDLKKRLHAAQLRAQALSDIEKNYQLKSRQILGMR

COc1nc2ccc([C@@](O)(c3ccccc3)C3CCN(C(C)=O)CC3)cc2c(Cl)c1Cc1ccc(-n2cccn2)cc1 [JNJ-54119936]
9.22 µM: Ki [8]
0.637 µM: Ki ([9]; read-out: Ki)
5.8 µM: IC50 (Bile acid receptor)
inactive: inhibition ([1]; Compound concentration 1.0 uM) 18% | inhibition ([1]; Compound concentration 10.0 uM) 22% | inhibition [2] 6% | inhibition ([3]; Compound concentration 1.0 uM) 18% | inhibition ([3]; Compound concentration 10.0 uM) 30% | inhibition [5] 3% | inhibition ([6]; Compound concentration 0.3 uM) 5.39% | inhibition ([6]; Compound concentration 1.0 uM) 8.98% | inhibition ([6]; Compound concentration 3.0 uM) 11% | inhibition [7] 25.6% | inhibition ([10]; Compound concentration 0.3 uM) -1.2% | inhibition ([10]; Compound concentration 1.0 uM) 0.61% | inhibition ([10]; Compound concentration 3.0 uM) -3.01% | inhibition [11] -4% | inhibition [12] 16.8% | inhibition [13] -1% | inhibition [14] 33% | inhibition [15] 5.9% | inhibition [16] 2% | inhibition ([17]; Compound concentration 0.3 uM) 1.77% | inhibition ([17]; Compound concentration 1.0 uM) 7.87% | inhibition ([17]; Compound concentration 3.0 uM) 14.8%
0.603 µM: Ki ([9]; read-out: pKi (converted))
active: inhibition [4] 65.8%
